For the assay, the target named is T1, human GVIA iPLA2 (Homo sapiens, UniProt O60733).
T1 sequence (O60733 1-806): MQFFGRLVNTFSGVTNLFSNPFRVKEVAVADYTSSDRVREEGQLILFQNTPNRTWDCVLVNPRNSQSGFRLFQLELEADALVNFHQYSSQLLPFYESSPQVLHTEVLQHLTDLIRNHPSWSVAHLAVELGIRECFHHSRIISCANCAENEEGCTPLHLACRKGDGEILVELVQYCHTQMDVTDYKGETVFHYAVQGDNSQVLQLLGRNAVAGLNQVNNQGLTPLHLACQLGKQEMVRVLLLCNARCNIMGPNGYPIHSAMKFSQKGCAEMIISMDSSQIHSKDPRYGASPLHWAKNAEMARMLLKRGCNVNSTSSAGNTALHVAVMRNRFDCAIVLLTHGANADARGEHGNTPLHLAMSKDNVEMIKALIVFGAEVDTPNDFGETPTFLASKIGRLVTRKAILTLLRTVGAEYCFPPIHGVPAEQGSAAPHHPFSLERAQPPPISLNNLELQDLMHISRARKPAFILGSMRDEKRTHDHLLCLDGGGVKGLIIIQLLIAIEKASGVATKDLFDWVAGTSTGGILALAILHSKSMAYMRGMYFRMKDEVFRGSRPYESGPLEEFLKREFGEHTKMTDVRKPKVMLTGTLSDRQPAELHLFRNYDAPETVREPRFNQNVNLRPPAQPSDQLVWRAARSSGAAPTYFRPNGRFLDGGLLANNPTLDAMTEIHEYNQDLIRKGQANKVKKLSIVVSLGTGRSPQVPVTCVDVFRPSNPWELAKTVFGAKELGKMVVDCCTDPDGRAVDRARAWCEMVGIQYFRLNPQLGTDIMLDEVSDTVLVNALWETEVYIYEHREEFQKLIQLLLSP
In words: Mixed micelle-based. Format: biochemical.

[1] abbreviates: XI(50) compared with inhibitor 2.

As to `O=C(CCCOc1ccccc1)C(F)(F)C(F)(F)F` [12a, 1,1,1,2,2-Pentafluoro-6-phenoxyhexan-3-one], the “times less potent on GVIA iPLA2 than inhibitor 2” value under setting [1] is listed as 2.5 times.

For the compound `O=C(CCCCc1ccc2ccccc2c1)C(F)(F)F` [12g, 1,1,1-Trifluoro-6-(naphthalen-2-yl)hexan-2-one], the “times higher inhibition of GVIA iPLA2 than inhibitor 2” value under setting [1] turned out to be 7 times.

By inhibition is commonly meant the share of the control response that was lost under treatment. In the case of `O=C(CCCCc1ccccc1)C(F)(F)C(F)(F)F` [compound 2, 1,1,1,2,2-pentafluoro-7-phenylheptan-3-one], where the note is “read-out: GVIA iPLA2 % Inhibition”, the inhibition at 0.091 mole fraction is 99.4 ± 0.1%.

As for `O=C(/C=C/C=C/c1ccccc1)C(F)(F)C(F)(F)F` [compound 10, (4E,6E)-1,1,1,2,2-Pentafluoro-7-phenylhepta-4,6-dien-3-one], the “times less potent on GVIA iPLA2 than inhibitor 2” value under setting [1] is 22 times.

The values above are taken from PMC2865582 (Journal of medicinal chemistry, 2010).
